Results as given in patent EP0745595A1, “3-(3-Aryloxyphenyl)-1-(substituted methyl)-s-triazine-2,4,6-oxo or thiotrione herbicidal agents” (American Cyanamid Company, priority 1995, dated 1996).

Columns and labels:
Assay type in all cases: in vivo
[1] = tested on: ORYZA SATIVA, L. TEBONNET; test: Postemergence herbicidal evaluation, ORYSAT (Rice, Tebonnet); parameters: key: 0-9 visual rating scale vs untreated control
Method: In the tests, seedling plants are grown in jiffy flats for about two weeks. The test compounds are dispersed in 50/50 acetone/water mixtures containing 0.5% TWEEN®20, a polyoxyethylene sorbitan monolaurate surfactant of Atlas Chemical Industries, in sufficient quantities to provide the equivalent of about 0.125 kg to 0.500 kg per hectare of active compound when applied to the plants through a spray nozzle operating at 40 psi for a predetermined time. After spraying, the plants are placed on greenhouse benches and are cared for in the usual manner, commensurate with conventional greenhouse practices. From four to five weeks after treatment, the seedling plants are examined and rated according to the rating system set forth below. Where more than one test is involved for a given compound, the data are averaged.
Plant species employed in these evaluations are reported by header abbreviation, common name and scientific name.
(§1) Results of herbicide evaluation are expressed on a rating scale (0-9). The scale is based upon a visual observation of plant stand, vigor, malformation, size, chlorosis and overall plant appearance as compared with a control.

[2] = tested on: ECHINOCHLOA ORYZOIDES (ARD.)FRITSCH; test: Preemergence weed control under flooded paddy conditions, ECHORC (Watergrass (Calif.)); conditions: preemergence, 3-4 weeks after treatment
Method: as §1
(§2) Preemergence herbicidal activity under flooded paddy conditions is determined as follows: plant seeds or propagating organs are planted in the top 0.5 cm of silt loam soil in 32 oz. plastic containers with a diameter of 10.5 cm and no drainage holes. Water is added to these containers and maintained at 1.5 to 3 cm above the soil surface for the duration of the experiment. […] The treated containers are placed on greenhouse benches and cared for according to normal greenhouse procedures.- Three to four weeks after treatment the test is terminated and each container is examined and herbicidal effect rated according to the rating system provided in Example 40. The compounds evaluated are reported by compound number given in Example 40.
(§3) Plant species employed in this example are reported by header abbreviation, common name and scientific name.

CYPERUS IRIA = test: Preemergence weed control under flooded paddy conditions, CYPIR (Rice Flatsedge); conditions: preemergence, 3-4 weeks after treatment
Method: as §1, §2, §3

[3] = tested on: CYPERUS SEROTINUS, ROTTB.; test: Preemergence weed control under flooded paddy conditions, CYPSE (Flatsedge); conditions: preemergence, 3-4 weeks after treatment
Method: as §1, §2, §3

[…], PRESL. = Preemergence weed control under flooded paddy conditions, MOOVA (Monochoria); conditions: preemergence, 3-4 weeks after treatment
Method: as §1
Preemergence herbicidal activity under flooded paddy conditions is determined as follows: plant seeds or propagating organs are planted in the top 0.5 cm of silt loam soil in 32 oz. plastic containers with a diameter of 10.5 cm and no drainage holes. Water is added to these containers and maintained at 1.5 to 3 cm above the soil surface for the duration of the experiment. The test compounds are applied as aqueous/acetone mixtures 50/50 v/v pipetted directly into the flood water to give the equivalent of about 0.5, 0.25, 0.125 and 0.063 kg/ha of active ingredient. The treated containers are placed on greenhouse benches and cared for according to normal greenhouse procedures.- Three to four weeks after treatment the test is terminated and each container is examined and herbicidal effect rated according to the rating system provided in Example 40. The compounds evaluated are reported by compound number given in Example 40.
as §3

SAGITTARIA PYGMAEA, L. = test: Preemergence weed control under flooded paddy conditions, SAGPY (Arrowhead (Pygmaea)); conditions: preemergence, 3-4 weeks after treatment
Method: as §1, §2, §3

[4] = tested on: ORYZA SATIVA, L. TEBONNET; test: Rice tolerance to post-transplant applications under flooded paddy conditions, ORYSAT (Rice, Tebonnet); conditions: post-transplant rice, 3-4 weeks after treatment
Method in brief: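 Two ten-day-old Tebonnet rice seedlings transplanted into silt loam, flooded 1.5–3 cm; three days later the water surface treated with compounds in acetone/water at about 0.5, 0.25, 0.125 and 0.063 kg/ha. Visual 0–9 injury rating versus control after 3–4 weeks in greenhouse.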

COC(=O)Cn1c(=O)n(C)c(=O)n(-c2cc(Oc3cc(F)c(F)cc3F)ccc2[N+](=O)[O-])c1=O [Compound 30]
ORYSAT rating ([1]; Rate 0.125 kg/ha): 3.0
ORYSAT rating ([1]; Rate 0.250 kg/ha): 3.0
ORYSAT rating ([1]; Rate 0.500 kg/ha): 3.0
Herbicidal effect rating, ECHORC ([2]; 0.500 kg/ha): 0.0
Herbicidal effect rating, CYPIR (CYPERUS IRIA; 0.500 kg/ha): 0.0
Herbicidal effect rating, CYPSE ([3]; 0.500 kg/ha): 0.0
Herbicidal effect rating, MOOVA ([…], PRESL.; 0.500 kg/ha): 0.0
Herbicidal effect rating, SAGPY (SAGITTARIA PYGMAEA, L.; 0.500 kg/ha): 0.0
Herbicidal effect rating, ORYSAT ([4]; 0.500 kg/ha): 1.0

C=CCn1c(=O)n(CC(=O)OCC)c(=O)n(-c2cc(Oc3ccc(C(F)(F)F)cc3Cl)ccc2[N+](=O)[O-])c1=O [Compound 13, Ethyl 3-allyl-5-{5-[(2-chloro-α,α,α-tri-fluoro-p-tolyl)oxy]-2-nitrophenyl}tetra-hydro-2,4,6-trioxo-s-triazine-1(2H)-acetate]
Herbicidal effect rating, ECHORC ([2]; 0.063 kg/ha): 9.0
Herbicidal effect rating, ECHORC ([2]; 0.125 kg/ha): 9.0
Herbicidal effect rating, ECHORC ([2]; 0.250 kg/ha): 9.0
Herbicidal effect rating, ECHORC ([2]; 0.500 kg/ha): 9.0
Herbicidal effect rating, CYPIR (CYPERUS IRIA; 0.063 kg/ha): 9.0
Herbicidal effect rating, CYPIR (CYPERUS IRIA; 0.125 kg/ha): 9.0
Herbicidal effect rating, CYPIR (CYPERUS IRIA; 0.250 kg/ha): 9.0
Herbicidal effect rating, CYPIR (CYPERUS IRIA; 0.500 kg/ha): 9.0
Herbicidal effect rating, CYPSE ([3]; 0.063 kg/ha): 0.0
Herbicidal effect rating, CYPSE ([3]; 0.125 kg/ha): 0.0
Herbicidal effect rating, CYPSE ([3]; 0.250 kg/ha): 0.0
Herbicidal effect rating, CYPSE ([3]; 0.500 kg/ha): 0.0
Herbicidal effect rating, MOOVA ([…], PRESL.; 0.063 kg/ha): 9.0
Herbicidal effect rating, MOOVA ([…], PRESL.; 0.125 kg/ha): 9.0
Herbicidal effect rating, MOOVA ([…], PRESL.; 0.250 kg/ha): 9.0
Herbicidal effect rating, MOOVA ([…], PRESL.; 0.500 kg/ha): 9.0
Herbicidal effect rating, SAGPY (SAGITTARIA PYGMAEA, L.; 0.063 kg/ha): 0.0
Herbicidal effect rating, SAGPY (SAGITTARIA PYGMAEA, L.; 0.125 kg/ha): 0.0
Herbicidal effect rating, SAGPY (SAGITTARIA PYGMAEA, L.; 0.250 kg/ha): 0.0
Herbicidal effect rating, SAGPY (SAGITTARIA PYGMAEA, L.; 0.500 kg/ha): 0.0
Herbicidal effect rating, ORYSAT ([4]; 0.063 kg/ha): 2.0
Herbicidal effect rating, ORYSAT ([4]; 0.125 kg/ha): 2.0
Herbicidal effect rating, ORYSAT ([4]; 0.250 kg/ha): 3.0
Herbicidal effect rating, ORYSAT ([4]; 0.500 kg/ha): 3.0
